{"source": "patent US12528821B2", "about": "“pH-dependent composition matters useful for study and diagnosis of alzheimer's disease” (Purdue Research Foundation, priority 2019, dated 2026)", "key": {"[1]": {"test": "pH-sensitivity: fluorescence intensity at various pH conditions", "assay_type": "physicochemical", "experimental": "The cell culture medium was treated with dilute HCl and NaOH solutions to obtain different solutions with pH of 1.0 to 9.0 for the assay. […] Different dilutions for each pH condition was prepared at concentrations of 0.5, 1.0, 2.0, and 5.0 μM in a 96-well plate."}, "[2]": {"test": "Atomic Force Microscopy analysis of aggregation", "assay_type": "physicochemical", "conditions": "compared with non-conjugated Aβ1-42", "experimental": "AFM sample preparation: The manufacturer's protocol was followed for sample preparation, image acquiring and analysis.\n1 mM Aβ solution was prepared by adding HFIP directly to the vial (0.5 mg Aβ or hAβ^pH or recombinant Aβ(M1-42) in 93.35 μL HFIP). The peptide should be completely dissolved. The solution was incubated at room temperature (RT) for at least 30 min. HFIP was allowed to evaporate in the open tubes overnight in the fume hood or using Argon/Nitrogen gas and then dry down under high vacuum for 1 h without heating to remove any remaining traces of HFIP and moisture. The resulting peptide thin clear film formed at the bottom of the tubes. The tubes containing dried peptides were stored at −20° C. until further use.\nPrior to use, tube containing peptide film was allowed to come to RT. Then, 5 mM Aβ DMSO stock was prepared by adding 20 μL fresh dry DMSO to 0.45 mg. Pipette thoroughly, scraping down the sides of the tube near the bottom to ensure complete resuspension of peptide film. Vortex well (˜30 sec) and pulse in a microcentrifuge to collect solution at the bottom of the tube. Sonicate 5 mM Aβ DMSO solution for 10 min. Use this preparation as the starting material for unaggregated Aβ and oligomeric Aβ. For oligomer formation, samples were incubated at 4° C. for 24 hr.\nSample preparation was done with proper sterile technique with sterile media and MilliQ-water. […]"}, "N9 microglial cells": {"test_system": "N9 microglial cells", "test": "Phagocytosis assay with live cells (IncuCyte live-cell imaging)", "assay_type": "cell-based, mouse", "experimental": "(§1) To visualize the phagocytosis of hAβ^pH in live microglial cells, immortalized human microglial clone 3 (HMC3) cells and mouse BV2 and N9 microglial cells were treated with 0.1-5.0 μM doses of hAβ^pH and live-cell images were acquired every 30 minutes for 24 hours on the IncuCyte™ ZOOM Live Content Imaging system (FIGS. 3A-3B). The green channel on the IncuCyte™ ZOOM system allows for excitation and emission wavelengths of 460/524 nm and thus the hAβ^pH reporter was optimal for use on the instrument.\n(§2) Cells were seeded at 5000 cells per well (200 μL per well) in a 96-well flat bottom plate (Falcon) for approximately 16 hours (overnight). The lyophilized hAβ^pH conjugate was dissolved in the culture medium for each cell type and filtered using 0.22 μm syringe filter. The adherent cells (BV2, N9, HMC3) were treated with a final concentration of hAβ^pH at 0, 0.1, 0.5, 1.0, 2.0, and 5.0 μM by replacing one-half of the culture medium (100 μL) with 2× concentration. Two technical replicates were used for each treatment concentration. The plates were immediately placed in the IncuCyte® S3 Live-Cell Analysis System (Essen BioScience) and four images per well were captured at 30-minute time intervals for 24 hours. The fluorescence intensity, cell confluence, and the integrated fluorescence intensity data was obtained and analyzed using the GraphPad Prism® software. The total hAβ^pH phagocytosis per concentration was calculated as:\n[formula] wherein, Total Integrated Intensity is defined as the total sum of hAβ^pH's fluorescent intensity in the image and Relative Total Integrated Intensity is defined as Total Integrated Intensity (t)—Total Integrated Intensity (t=0) for each concentration. Flow Cytometry Analysis of BV-2 Microglia Phagocytosis"}, "BV2 microglial cells [3]": {"test_system": "BV2 microglial cells", "test": "Phagocytosis assay with live cells (IncuCyte live-cell imaging)", "assay_type": "cell-based, mouse", "experimental": "Cells were seeded at 5000 cells per well (200 μL per well) in a 96-well flat bottom plate (Falcon) for approximately 16 hours (overnight). […] Two technical replicates were used for each treatment concentration. The plates were immediately placed in the IncuCyte® S3 Live-Cell Analysis System (Essen BioScience) and four images per well were captured at 30-minute time intervals for 24 hours. The fluorescence intensity, cell confluence, and the integrated fluorescence intensity data was obtained and analyzed using the GraphPad Prism® software.\nFlow Cytometry Analysis of BV-2 Microglia Phagocytosis"}, "HMC3 cells": {"test_system": "HMC3 cells", "test": "Phagocytosis assay with live cells (IncuCyte live-cell imaging)", "assay_type": "cell-based, human", "experimental": "as §1\nas §2, with “The plates were immediately placed in the IncuCyte® S3 Live-Cell Analysis System (Essen BioScience) and four images per well were captured at 30-minute time intervals for 24 hours.” left out, “as: […]” for “as:”"}, "BV2 microglial cells [4]": {"test_system": "BV2 microglial cells", "test": "Flow cytometry analysis of BV-2 microglia phagocytosis", "assay_type": "cell-based, mouse", "conditions": "0.5 and 1.0 μM for 1 hour", "experimental": "BV2 microglial cells were seeded at a density of 250 k cells/well in a 6-well plate for around 14 hr overnight. […] After 2 hours, the plate was brought to the hood, placed on ice to stop phagocytosis, and cell culture medium containing hAβ^pH was aspirated. The cells were washed once with cold PBS. Next, the cells were treated with ice cold PBS with 2 mM EDTA for 2 mins on ice to initiate detachment of the cells from the wells. The cells were fully detached from the wells with very gentle pipetting and transferred into falcon tubes. The cells were centrifuged once at 1400 RPM for 3 mins. The PBS/EDTA supernatant was aspirated out and the cell pellets were re-suspended in FACS buffer (PBS, 25 mM HEPES, 2 mM EDTA, and 2% FBS). Five minutes before analysis of each sample tube, Propidium Iodide (PI) was added to the sample (40 ng/1 mL cell suspension) for staining of live/dead cells. […] The filed were then analyzed on FlowJo V10 software. Gating strategy is indicated in FIG. 4 on the main manuscript."}, "[5]": {"test_system": "HMC3, BV2, and N9 microglial cells", "test": "Confocal imaging of actin filaments and nuclei in paraformaldehyde-fixed phagocytic microglial cells", "assay_type": "cell-based, human, mouse", "conditions": "5.0 μM for 2 hours, fixed with 4% paraformaldehyde", "experimental": "Fixation of cells and using target protein markers along with hAβ^pH can inform us about the molecular mechanisms involved in microglial phagocytosis with confocal microscopy. To confirm that the hAβ^pH reporter can maintain its fluorescence in fixed cells, HMC3, BV2, and N9 microglial cells were fixed with common cell staining reagents. The cells were treated with 5.0 μM of hAβ^pH for 2 hours and fixed with 4% paraformaldehyde followed by the addition of the phalloidin dye to visualize cellular integrity via the staining of the F-actin filaments (FIG. 5).\nFor labeling the cells with Phalloidin and DAPI, 20,000 cells/250 μL were plated in 14 mm microwells of the 35 mm glass bottom dishes (MatTek #P35G-1.5-14-C) and kept overnight. The cells were treated with 5.0 μM hAβ^pH for 2 hours on the next day. Then the medium was aspirated, and cells were fixed with 4% paraformaldehyde for 20 mins, and then gently washed once with PBS. Phalloidin-iFluor 555 reagent was diluted at a concentration of 1 μL/mL in PBS and added to the fixed cells for 10 minutes for staining the actin filaments. To label the nuclei, DAPI was diluted at a concentration of 1 μL/mL. […] Fluorescence images of phagocytic microglial cells were captured using 40× and 60× objectives on the Nikon AR-1 MP confocal laser microscope. […]"}, "HMC3, N9, and BV2 cells": {"test_system": "HMC3, N9, and BV2 cells", "test": "Confocal imaging of intracellular acidic organelles (LysoTracker) in fixed phagocytic microglial cells", "assay_type": "cell-based, human, mouse", "conditions": "5.0 μM, 2-hour time point", "from_the_text": "To visualize the localization of the hAβ^pH within the microglial cell cytoplasm, the acidic intracellular compartments were labeled with LysoTracker™ DND-99 that stains the lysosomal organelles of the cells. […] It has been recently shown that microglia in vitro recognize and phagocytose Aβ peptides through scavenger receptors,^8 Toll-Like Receptor 2 (TLR2),^17 Cluster of Differentiation 14 (CD14),^18 and Triggering Receptors Expressed on Myeloid Cells 2 (TREM2).^19 Thus, our hAβ^pH reporter serves as a valuable chemical tool in delineating the role of several receptor proteins involved in the Aβ uptake of live and fixed microglial cells using cell staining reagents and by using specific antibodies such as anti-CD14, anti-TREM2, etc. Additionally, the role of inflammation, including the effects of inflammatory cytokines, such as IL-la and TNF-α, on Aβ clearance is not resolved. Thus, our hAβ^pH will be a valuable for studying hAβ^pH phagocytosis under the influence of inflammatory cytokines or small molecule inhibitors.\nLysoTracker® Red DND-99 was used for labeling the intracellular organelles of the cells to observe localization of hAβ^pH sensors inside the cells after phagocytosis. […] Fluorescence images of phagocytic microglial cells were captured using 40× and 60× objectives on the Nikon AR-1 MP confocal laser microscope. […]"}, "primary mouse microglia": {"test_system": "primary mouse microglia", "test": "Phagocytic uptake by primary microglia ex vivo (confocal, flow cytometry)", "assay_type": "cell-based"}, "[6]": {"test_system": "primary immunopanned rat astrocytes", "test": "Uptake by primary immunopanned astrocytes in serum-free conditions", "assay_type": "cell-based", "conditions": "fixed, GFAP stained"}, "[7]": {"test_system": "microglia and astrocytes in rat hippocampal tissue sections", "test": "Phagocytosis assay in rat hippocampal tissue slices (in situ)", "conditions": "IBA1+ and GFAP+ staining"}, "[8]": {"test_system": "cortical IBA1+ microglia and GFAP+ astrocytes", "test": "Stereotaxic microinjection in the somatosensory cortex, staining of fixed tissue sections", "assay_type": "in vivo, mouse"}, "[9]": {"test_system": "retinal IBA1+ microglia and GFAP+ astrocytes", "test": "Subretinal injection, in vivo uptake by retinal microglia and astrocytes", "conditions": "rat"}, "[10]": {"test_system": "microglia and astrocytes in the cerebral cortex", "test": "In vivo two-photon imaging of the barrel cortex through a cranial window after topical application", "set-up": "species or system mouse"}, "[11]": {"conditions": "P7 mouse, periventricular white matter, 72 h"}}}
{"substance": "RODO-conjugated hAβ^pH: conjugate of the Aβ1-42 peptide with pHrodo-Red (RODO) fluorophore", "values": [{"measurement": "pH range of increased fluorescence", "setting": "[1]; 0.5, 1.0, 2.0, and 5.0 μM, FIG. 1C", "value": "1.0-7.0"}]}
{"substance": "hAβ^pH: pH-dependent fluorescent conjugate of human Aβ1-42 peptide linked to amine-reactive Protonex Green 500, SE (PTXG) fluorophore", "values": [{"measurement": "fluorescence intensity at the physiological pH of 7.4", "setting": "[1]; pH 7.4", "value": "did not show an increased fluorescence intensity"}, {"measurement": "ability to aggregate (AFM)", "setting": "[2]", "value": "aggregate similar to the non-conjugated Aβ"}, {"measurement": "intracellular fluorescence beyond 18 hours", "setting": "N9 microglial cells; 5.0 μM", "value": "began to decrease"}, {"measurement": "time of peak intracellular green fluorescence", "setting": "N9 microglial cells; 5.0 μM", "value": "12 to 18", "unit": "h"}, {"measurement": "intracellular fluorescence (phagocytosis) over time", "setting": "N9 microglial cells; 1.0 and 2.0 μM doses", "value": "gradual increase in intracellular fluorescence"}, {"measurement": "intracellular fluorescence during the 18-hour time period", "setting": "BV2 microglial cells [3]; 5.0 μM dose", "value": "increased intracellular fluorescence"}, {"measurement": "intracellular fluorescence (phagocytosis) over time", "setting": "BV2 microglial cells [3]; 1.0 and 2.0 μM doses", "value": "gradual increase in intracellular fluorescence"}, {"measurement": "phagocytosis", "setting": "HMC3 cells; 5.0 μM", "value": "increased phagocytosis"}, {"measurement": "time period of increased intracellular fluorescence", "setting": "HMC3 cells; 1.0 and 2.0 μM doses, followed by gradual decrease", "value": "1 to 8", "unit": "h"}, {"measurement": "green fluorescence in live (PI-) cells (flow cytometry)", "setting": "BV2 microglial cells [4]", "value": "green fluorescence is measured"}, {"measurement": "fluorescence retained in fixed cells (confocal, phalloidin)", "setting": "[5]", "value": "showed green fluorescence"}, {"measurement": "co-localization with LysoTracker dye", "setting": "HMC3, N9, and BV2 cells", "value": "confirmed the presence of hAβ^pH within the acidic phagosomes"}, {"measurement": "green fluorescence in live (ZV-) cells (flow cytometry)", "setting": "primary mouse microglia; 0.5, 1.0, and 2.0 μM for 1 hour", "value": "green fluorescence is measured"}, {"measurement": "phagocytosis ex vivo (confocal, LysoTracker Red)", "setting": "primary mouse microglia; defined, reduced-serum media, fixed cells", "value": "phagocytose Aβ^pH ex vivo"}, {"measurement": "phagocytosis by astrocytes", "setting": "[6]", "value": "also phagocytose Aβ^pH"}, {"measurement": "phagocytosis in situ", "setting": "[7]", "value": "phagocytosed by both microglia and astrocytes in situ"}, {"measurement": "phagocytic uptake at the 24 h timepoint", "setting": "[8]; P7 mouse, periventricular white matter, 24 h", "value": "phagocytic uptake of Aβ^pH by IBA1^+ microglia and GFAP^+ astrocytes"}, {"measurement": "fluorescence in GFAP+ astrocytes at 72 h", "setting": "[8]; [11]", "value": "do not show any green fluorescence"}, {"measurement": "fluorescence in IBA1+ microglia at 72 h", "setting": "[8]; [11]", "value": "bright green fluorescence"}, {"measurement": "fluorescence within microglia vs astrocytes", "setting": "[8]; pia and white matter regions", "value": "more Aβ^pH uptake by microglia compared to astrocytes"}, {"measurement": "fluorescence in retinal astrocytes (quantification)", "setting": "[9]; 3 time points, FIG. 11G", "value": "No fluorescence was detected"}, {"measurement": "phagocytosis by GFAP+ retinal astrocytes in vivo", "setting": "[9]; FIG. 11F", "value": "phagocytose Aβ^pH in vivo"}, {"measurement": "fluorescence in cell somata after topical application", "setting": "[10]; mouse barrel cortex, two-photon imaging", "value": "fluorescence increases in cell somata"}, {"measurement": "colocalization with IBA1, CD68, and GFAP", "setting": "[10]; perfusion-fixed 1.5 to 3 hours after imaging, cortical slices", "value": "most Aβ^pH is taken up by microglia and astrocytes in vivo"}]}
